Key:
Assay type in all cases: in vivo
Conditions in all cases: scale 0 to 100
[1] = system: radish, wild (wild radish, Raphanus raphanistrum); assay: Test D preemergence
Procedure, shortened: (§1)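 Test chemicals, formulated in a non-phytotoxic solvent blend including surfactant, are applied preemergence to seeded silt loam soil. Response is judged visually against controls after approximately 21 d in a controlled environment, on a scale where 0 is no effect and 100 is complete control.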

[2] = system: foxtail, green (green foxtail, Setaria viridis); assay: Test D preemergence
Procedure, shortened: as §1

[3] = system: pigweed (Amaranthus retroflexus); assay: Test D preemergence
Procedure, shortened: as §1

[4] = system: chickweed (common chickweed, Stellaria media); assay: Test D preemergence
Procedure, shortened: as §1

[5] = system: buckwheat, wild (wild buckwheat, Polygonum convolvulus); assay: Test D preemergence
Procedure, shortened: as §1

[6] = system: Russian thistle (Salsola kali); assay: Test D preemergence
Procedure, shortened: as §1

[7] = system: ryegrass, Italian (Italian ryegrass, Lolium multiflorum); assay: Test D preemergence
Procedure, shortened: as §1

[8] = system: mustard, wild (wild mustard, Sinapis arvensis); assay: Test D preemergence
Procedure, shortened: as §1

[9] = system: Galium (catchweed bedstraw, Galium aparine); assay: Test D preemergence
Procedure, shortened: as §1

[10] = system: wheat, winter (winter wheat, Triticum aestivum); assay: Test D preemergence
Procedure, shortened: as §1

Kochia (Kochia scoparia) = assay: Test D preemergence
Procedure, shortened: as §1

corn (Zea mays) = assay: Test E preemergence
Procedure, shortened: (§2)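 Visual ratings from 0 (no effect) to 100 (complete control) were made versus controls 14 to 21 d after treatment. Seeds in silt loam were treated preemergence, or plants 2 to 18 cm tall in peat-based medium postemergence, with the test chemical in a surfactant-containing, non-phytotoxic solvent mixture, then held in a greenhouse.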

[11] = system: johnsongrass (Sorghum halepense); assay: Test E preemergence
Procedure, shortened: as §2

[12] = system: lambsquarters (Chenopodium album); assay: Test E preemergence
Procedure, shortened: as §2

soybean (Glycine max) = assay: Test E preemergence
Procedure, shortened: as §2

[13] = system: dayflower, VA (Virginia dayflower, Commelina virginica); assay: Test E preemergence
Procedure, shortened: as §2

CN1CC(c2cccc(C(F)(F)F)c2)C(C(=O)Nc2cccc(F)c2F)C1=O (stereo not drawn) [Compound 636]
Plant response rating: Radish, Wild ([1]; 62 g ai/ha): 25 | Plant response rating: Radish, Wild ([1]; 125 g ai/ha): 65 | Plant response rating: Radish, Wild ([1]; 250 g ai/ha): 100 | Plant response rating: Foxtail, Green ([2]; 31 g ai/ha): 100 | Plant response rating: Foxtail, Green ([2]; 62 g ai/ha): 100 | Plant response rating: Foxtail, Green ([2]; 125 g ai/ha): 100 | Plant response rating: Foxtail, Green ([2]; 250 g ai/ha): 100 | Plant response rating: Pigweed ([3]; 31 g ai/ha): 0 | Plant response rating: Pigweed ([3]; 62 g ai/ha): 10 | Plant response rating: Pigweed ([3]; 125 g ai/ha): 50 | Plant response rating: Pigweed ([3]; 250 g ai/ha): 85 | Plant response rating: Chickweed ([4]; 31 g ai/ha): 85 | Plant response rating: Chickweed ([4]; 62 g ai/ha): 85 | Plant response rating: Chickweed ([4]; 125 g ai/ha): 90 | Plant response rating: Chickweed ([4]; 250 g ai/ha): 90 | Plant response rating: Buckwheat, Wild ([5]; 31 g ai/ha): 5 | Plant response rating: Buckwheat, Wild ([5]; 62 g ai/ha): 75 | Plant response rating: Buckwheat, Wild ([5]; 125 g ai/ha): 90 | Plant response rating: Buckwheat, Wild ([5]; 250 g ai/ha): 80 | Plant response rating: Russian Thistle ([6]; 31 g ai/ha): 0 | Plant response rating: Russian Thistle ([6]; 62 g ai/ha): 40 | Plant response rating: Russian Thistle ([6]; 125 g ai/ha): 50 | Plant response rating: Russian Thistle ([6]; 250 g ai/ha): 60 | Plant response rating: Ryegrass, Italian ([7]; 31 g ai/ha): 15 | Plant response rating: Ryegrass, Italian ([7]; 62 g ai/ha): 40 | Plant response rating: Ryegrass, Italian ([7]; 125 g ai/ha): 65 | Plant response rating: Ryegrass, Italian ([7]; 250 g ai/ha): 80 | Plant response rating: Mustard, Wild ([8]; 31 g ai/ha): 0 | Plant response rating: Mustard, Wild ([8]; 62 g ai/ha): 15 | Plant response rating: Mustard, Wild ([8]; 125 g ai/ha): 15 | Plant response rating: Mustard, Wild ([8]; 250 g ai/ha): 85 | Plant response rating: Galium ([9]; 31 g ai/ha): 0 | Plant response rating: Galium ([9]; 62 g ai/ha): 15 | Plant response rating: Galium ([9]; 125 g ai/ha): 30 | Plant response rating: Galium ([9]; 250 g ai/ha): 60 | Plant response rating: Wheat, Winter ([10]; 31 g ai/ha): 5 | Plant response rating: Wheat, Winter ([10]; 62 g ai/ha): 60 | Plant response rating: Wheat, Winter ([10]; 125 g ai/ha): 70 | Plant response rating: Wheat, Winter ([10]; 250 g ai/ha): 65 | Plant response rating: Kochia (Kochia (Kochia scoparia); 31 g ai/ha): 5 | Plant response rating: Kochia (Kochia (Kochia scoparia); 62 g ai/ha): 25 | Plant response rating: Kochia (Kochia (Kochia scoparia); 125 g ai/ha): 75 | Plant response rating: Kochia (Kochia (Kochia scoparia); 250 g ai/ha): 75 | Plant response rating: Corn (corn (Zea mays); 31 g ai/ha): 65 | Plant response rating: Corn (corn (Zea mays); 62 g ai/ha): 70 | Plant response rating: Corn (corn (Zea mays); 125 g ai/ha): 80 | Plant response rating: Corn (corn (Zea mays); 250 g ai/ha): 80 | Plant response rating: Johnsongrass ([11]; 31 g ai/ha): 90 | Plant response rating: Johnsongrass ([11]; 62 g ai/ha): 95 | Plant response rating: Johnsongrass ([11]; 125 g ai/ha): 95 | Plant response rating: Johnsongrass ([11]; 250 g ai/ha): 98 | Plant response rating: Lambsquarters ([12]; 31 g ai/ha): 90 | Plant response rating: Lambsquarters ([12]; 62 g ai/ha): 90 | Plant response rating: Lambsquarters ([12]; 125 g ai/ha): 90 | Plant response rating: Lambsquarters ([12]; 250 g ai/ha): 90 | Plant response rating: Soybean (soybean (Glycine max); 31 g ai/ha): 0 | Plant response rating: Soybean (soybean (Glycine max); 62 g ai/ha): 0 | Plant response rating: Soybean (soybean (Glycine max); 125 g ai/ha): 0 | Plant response rating: Soybean (soybean (Glycine max); 250 g ai/ha): 0 | Plant response rating: Dayflower, VA ([13]; 31 g ai/ha): 0 | Plant response rating: Dayflower, VA ([13]; 62 g ai/ha): 0 | Plant response rating: Dayflower, VA ([13]; 125 g ai/ha): 35 | Plant response rating: Dayflower, VA ([13]; 250 g ai/ha): 65

Source: US12077503B2, “Substituted cyclic amides and their use as herbicides” (FMC CORPORATION, priority 2015, dated 2024)
